Activity calls are given as the source filed them. The rule behind the calls is not given here.
Experiments:
Staphylococcus aureus [1] = assay: Antibacterial activity against wild type Staphylococcus aureus 4968/C assessed as reduction in microbial growth incubated for 24 hrs by microdilution assay; type: functional
Staphylococcus aureus [2] = assay: Antibacterial activity against […] Staphylococcus aureus 4460/A assessed as reduction in microbial growth incubated for 24 hrs by microdilution assay; type: functional
Staphylococcus aureus [3] = assay: microbe, parasite or virus in culture; conditions: 4862/C, 24 h
Description: Antibacterial activity against wild type Staphylococcus aureus 4862/C assessed as reduction in microbial growth incubated for 24 hrs by microdilution assay

Staphylococcus aureus [4] = assay: Antibacterial activity against wild type Staphylococcus aureus 4515/A assessed as reduction in microbial growth incubated for 24 hrs by microdilution assay; type: functional
Staphylococcus aureus [5] = assay: Antibacterial activity against wild type Staphylococcus aureus 4717/B assessed as reduction in microbial growth incubated for 24 hrs by microdilution assay; type: functional
Staphylococcus aureus [6] = assay: Antibacterial activity against wild type Staphylococcus aureus 4502/A assessed as reduction in microbial growth incubated for 24 hrs by microdilution assay; type: functional
Cell membrane [7] = assay: Induction of cell envelope damage in Staphylococcus aureus assessed as membranous nanotubes extrude from dying/dead cells at 8 mg/L measured after 8 hrs by scanning electron microscope analysis
Staphylococcus aureus [8] = assay: Antibacterial activity against wild type Staphylococcus aureus 5079/C assessed as reduction in microbial growth incubated for 24 hrs by microdilution assay; type: functional
Cell membrane [9] = assay: Induction of cell envelope damage in Staphylococcus aureus assessed as loss of cell integrity at 8 mg/L measured after 8 hrs by scanning electron microscope analysis; type: subcellular
Staphylococcus aureus [10] = assay: Antibacterial activity against wild type Staphylococcus aureus 78/CF assessed as reduction in microbial growth incubated for 24 hrs by microdilution assay; type: functional
Staphylococcus aureus [11] = assay: Antibacterial activity against wild type Staphylococcus aureus 4788/B assessed as reduction in microbial growth incubated for 24 hrs by microdilution assay; type: functional
Staphylococcus aureus [12] = assay: Antibacterial activity against Staphylococcus aureus ATCC 29213 = CCM 4223 assessed as inhibition of bacterial growth incubated for 24 hrs by microdilution assay; type: functional
Staphylococcus aureus [13] = assay: Antibacterial activity against wild type Staphylococcus aureus 77/CF assessed as reduction in microbial growth incubated for 24 hrs by microdilution assay; type: functional
[14] = Toxicity in rabbit assessed as eye irritation at 100 mg/L measured at 1 to 168 hrs; parameters: species or system Oryctolagus cuniculus; conditions: in vivo, topical_or_ocular, time 1-168 hrs
Staphylococcus aureus [15] = assay: Antibacterial activity against wild type Staphylococcus aureus 4504/A assessed as reduction in microbial growth incubated for 24 hrs by microdilution assay; type: functional
Escherichia coli [16] = assay: Antibacterial activity against Escherichia coli ATCC 25922 = CCM 3954 assessed as inhibition of bacterial growth incubated for 24 hrs in presence of BSA by microdilution assay; type: functional
Escherichia coli [17] = assay: Antibacterial activity against Escherichia coli ATCC 25922 = CCM 3954 assessed as inhibition of bacterial growth incubated for 24 hrs by microdilution assay; type: functional
[18] = system: Staphylococcus epidermidis; assay: Antibacterial activity against Staphylococcus epidermidis CCM 7221 assessed as inhibition of bacterial growth incubated for 24 hrs by microdilution assay; type: functional
[19] = Toxicity in human epidermis model assessed as skin irritation incubated for 42 hrs; type: tissue-based
Staphylococcus aureus [20] = assay: Bactericidal activity against Staphylococcus aureus CCM 4223 assessed as reduction in viable cell count measured after 24 hrs by Time kill assay; type: functional, organism-based; conditions: DDE = dose-dependent effect
Staphylococcus aureus [21] = assay: microbe, parasite or virus in culture; conditions: 5017/C, 24 h
Description: Antibacterial activity against wild type Staphylococcus aureus 5017/C assessed as reduction in microbial growth incubated for 24 hrs by microdilution assay

Staphylococcus aureus [22] = assay: Antibacterial activity against wild type Staphylococcus aureus 4561/A assessed as reduction in microbial growth incubated for 24 hrs by microdilution assay; type: functional
Cell membrane [23] = assay: Induction of cell envelope damage in Staphylococcus aureus assessed as tubular structure at 8 mg/L measured after 8 hrs by scanning electron microscope analysis
Staphylococcus aureus [24] = assay: Antibacterial activity against wild type Staphylococcus aureus 4904/C assessed as reduction in microbial growth incubated for 24 hrs by microdilution assay; type: functional
[25] = Toxicity in human cornea epidermis model assessed as tissue viability pretreated for 1 hr and measured after 42 hrs by MTT assay relative to control; type: tissue-based; conditions: read-out: Activity
Pseudomonas aeruginosa [26] = assay: Antibacterial activity against Pseudomonas aeruginosa ATCC 27853 = CCM 3955 assessed as inhibition of bacterial growth incubated for 24 hrs by microdilution assay; type: functional
[27] = Toxicity in human cornea epidermis model assessed as eye irritation incubated for 42 hrs; type: tissue-based
Staphylococcus aureus [28] = assay: Antibacterial activity against wild type Staphylococcus aureus 4679/B assessed as reduction in microbial growth incubated for 24 hrs by microdilution assay; type: functional
Staphylococcus aureus [29] = assay: Antibacterial activity against wild type Staphylococcus aureus 4566/A assessed as reduction in microbial growth incubated for 24 hrs by microdilution assay; type: functional
[30] = Toxicity in rabbit assessed as maximum tolerated dose administered orally; parameters: species or system Oryctolagus cuniculus; conditions: in vivo, route po
Escherichia coli [31] = assay: Bactericidal activity against Escherichia coli CCM 3954 assessed as reduction in viable cell count measured after 24 hrs by Time kill assay; type: functional, organism-based; conditions: dose 2-8 mg/L, DDE = dose-dependent effect
Pseudomonas aeruginosa [32] = assay: Antibacterial activity against multidrug-resistant Pseudomonas aeruginosa assessed as reduction in microbial growth incubated for 24 hrs by microdilution assay; type: functional
Staphylococcus aureus [33] = assay: Antibacterial activity against Staphylococcus aureus ATCC 29213 = CCM 4223 assessed as inhibition of bacterial growth incubated for 24 hrs in presence of BSA by microdilution assay; type: functional
Enterococcus faecalis = assay: Antibacterial activity against Enterococcus faecalis ATCC 29212 = CCM 4224 assessed as inhibition of bacterial growth incubated for 24 hrs by microdilution assay; type: functional
[34] = Toxicity in rabbit assessed as maximum tolerated dose administered subcutaneously; parameters: species or system Oryctolagus cuniculus; conditions: in vivo, route sc
Cell membrane [35] = assay: Induction of cell envelope damage in Staphylococcus aureus assessed as loss of cytoplasmic content at 8 mg/L measured after 8 hrs by scanning electron microscope analysis; type: subcellular
Staphylococcus aureus [36] = assay: Antibacterial activity against wild type Staphylococcus aureus 4883/C assessed as reduction in microbial growth incubated for 24 hrs by microdilution assay; type: functional
[37] = Toxicity in rabbit assessed as skin irritation at 100 to 200 mg/L after administration bandaged for 4 hrs and measured after 1 to 72 hrs of contact time; parameters: species or system Oryctolagus cuniculus; conditions: in vivo, topical_or_ocular, dose lower 100 mg/L, time lower 1 hrs, dose upper 200 mg/L, time upper 76 hrs
[38] = Gradient chromatographic hydrophobicity index of the compound at pH 3.7 by HPLC analysis; type: ADME
Staphylococcus aureus [39] = assay: Antibacterial activity against wild type Staphylococcus aureus 4740/B assessed as reduction in microbial growth incubated for 24 hrs by microdilution assay; type: functional
Staphylococcus aureus [40] = assay: Antibacterial activity against wild type Staphylococcus aureus 4738/B assessed as reduction in microbial growth incubated for 24 hrs by microdilution assay; type: functional
Staphylococcus aureus [41] = assay: microbe, parasite or virus in culture; conditions: 4880/C, 24 h
Description: Antibacterial activity against wild type Staphylococcus aureus 4880/C assessed as reduction in microbial growth incubated for 24 hrs by microdilution assay

Escherichia coli [42] = assay: Antibacterial activity against multidrug-resistant Escherichia coli CE5556 expressing CTX-M-15 assessed as reduction in microbial growth incubated for 24 hrs by microdilution assay; type: functional
[43] = Hemolytic activity in human RBC assessed as haemoglobin release measured after 3 hr; type: toxicity, cell-based, Erythrocyte; conditions: red blood cells (erythrocytes)
Staphylococcus aureus [44] = assay: Antibacterial activity against wild type Staphylococcus aureus 4482/A assessed as reduction in microbial growth incubated for 24 hrs by microdilution assay; type: functional
Staphylococcus aureus [45] = assay: Antibacterial activity against […] Staphylococcus aureus 4463/A assessed as reduction in microbial growth incubated for 24 hrs by microdilution assay; type: functional
Staphylococcus aureus [46] = assay: Antibacterial activity against […] Staphylococcus aureus 4461/A assessed as reduction in microbial growth incubated for 24 hrs by microdilution assay; type: functional
Staphylococcus aureus [47] = assay: Antibacterial activity against methicillin resistant Staphylococcus aureus 4591/A assessed as reduction in microbial growth incubated for 24 hrs by microdilution assay; type: functional
Staphylococcus aureus [48] = assay: Antibacterial activity against wild type Staphylococcus aureus 4557/A assessed as reduction in microbial growth incubated for 24 hrs by microdilution assay; type: functional
[49] = Cytotoxicity against human HepG2 cells assessed as reduction in cell viability; type: toxicity, cell-based
Enterococcus faecium = assay: Antibacterial activity against vancomycin resistant Enterococcus faecium 419/ANA assessed as reduction in microbial growth incubated for 24 hrs by microdilution assay; type: functional
[50] = Toxicity in rabbit assessed as clinical sign at 10 to 200 mg/kg, po; type: organism-based, Oryctolagus cuniculus; conditions: in vivo, dose 10-200 mg/kg
[51] = Toxicity in rabbit assessed as clinical sign at 0.5 to 15 mg/kg, sc; type: organism-based, Oryctolagus cuniculus; conditions: in vivo, dose 0.5-15 mg/kg
[52] = Toxicity in rabbit assessed as pathological changes in necropsy at 10 to 200 mg/kg, po; type: organism-based, Oryctolagus cuniculus; conditions: in vivo, dose 10-200 mg/kg
[53] = Toxicity in rabbit assessed as pathological changes in necropsy at 0.5 to 15 mg/kg, sc; type: organism-based, Oryctolagus cuniculus; conditions: in vivo, dose 0.5-15 mg/kg

CCCCCCCCOP(=O)(CCN(CCCN)CCCN)OCCCCOP(=O)(CCN(CCCN)CCCN)OCCCCCCCC.Cl.Cl.Cl.Cl.Cl.Cl (configuration not stated)
MIC (Staphylococcus aureus [1]): 2 µg/mL | MIC (Staphylococcus aureus [2]): 1 µg/mL | MIC (Staphylococcus aureus [3]): 1 µg/mL | MIC (Staphylococcus aureus [4]): 1 µg/mL | MIC (Staphylococcus aureus [5]): 1 µg/mL | MIC (Staphylococcus aureus [6]): 2 µg/mL | Activity (Cell membrane [7]): Active | MIC (Staphylococcus aureus [8]): 1 µg/mL | Activity (Cell membrane [9]): Active | MIC (Staphylococcus aureus [10]): 2 µg/mL | MIC (Staphylococcus aureus [11]): 1 µg/mL | MIC (Staphylococcus aureus [12]): 2 µg/mL | MIC (Staphylococcus aureus [13]): 2 µg/mL | Activity [14]: Non-Toxic | MIC (Staphylococcus aureus [15]): 2 µg/mL | MIC (Escherichia coli [16]): 1 µg/mL | MIC (Escherichia coli [17]): 2 µg/mL | MIC [18]: 1 µg/mL | Activity [19]: Non-Toxic | Activity (Staphylococcus aureus [20]): Dde | MIC (Staphylococcus aureus [21]): 1 µg/mL | MIC (Staphylococcus aureus [22]): 2 µg/mL | Activity (Cell membrane [23]): Active | MIC (Staphylococcus aureus [24]): 1 µg/mL | viability at 42 h [25]: > 60% | MIC (Pseudomonas aeruginosa [26]): 4 µg/mL | Activity [27]: Non-Toxic | MIC (Staphylococcus aureus [28]): 2 µg/mL | MIC (Staphylococcus aureus [29]): 1 µg/mL | MTD [30]: > 200 mg/kg | Activity (Escherichia coli [31]): Dde | MIC (Pseudomonas aeruginosa [32]): 4 µg/mL | MIC (Staphylococcus aureus [33]): 2 µg/mL | MIC (Enterococcus faecalis): 4 µg/mL | MTD [34]: > 15 mg/kg | Activity (Cell membrane [35]): Active | MIC (Staphylococcus aureus [36]): 1 µg/mL | Activity [37]: Non-Toxic | CHI [38]: 35.3 | MIC (Staphylococcus aureus [39]): 1 µg/mL | MIC (Staphylococcus aureus [40]): 1 µg/mL | MIC (Staphylococcus aureus [41]): 1 µg/mL | MIC (Escherichia coli [42]): 2 µg/mL | HC50 at 3 h [43]: 263 µg/mL | MIC (Staphylococcus aureus [44]): 1 µg/mL | MIC (Staphylococcus aureus [45]): 2 µg/mL | MIC (Staphylococcus aureus [46]): 2 µg/mL | MIC (Staphylococcus aureus [47]): 2 µg/mL | MIC (Staphylococcus aureus [48]): 1 µg/mL | CC50 [49]: 95.9 µM | MIC (Enterococcus faecium): 64 µg/mL

CCCC/C=C\CCOP(=O)(CCN(CCCN)CCCN)OCCCCCOP(=O)(CCN(CCCN)CCCN)OCC/C=C\CCCC.Cl.Cl.Cl.Cl.Cl.Cl (configuration not stated)
MIC (Staphylococcus aureus [1]): 4 µg/mL | MIC (Staphylococcus aureus [2]): 4 µg/mL | MIC (Staphylococcus aureus [3]): 4 µg/mL | Activity [50]: Non-Toxic | MIC (Staphylococcus aureus [4]): 4 µg/mL | MIC (Staphylococcus aureus [5]): 2 µg/mL | MIC (Staphylococcus aureus [6]): 4 µg/mL | MIC (Staphylococcus aureus [8]): 4 µg/mL | MIC (Staphylococcus aureus [10]): 8 µg/mL | MIC (Staphylococcus aureus [11]): 4 µg/mL | Activity [51]: Non-Toxic | MIC (Staphylococcus aureus [12]): 2 µg/mL | MIC (Staphylococcus aureus [13]): 4 µg/mL | MIC (Staphylococcus aureus [15]): 4 µg/mL | MIC (Escherichia coli [16]): 4 µg/mL | Activity [52]: Non-Toxic | MIC (Escherichia coli [17]): 8 µg/mL | MIC [18]: 0.5 µg/mL | MIC (Staphylococcus aureus [21]): 4 µg/mL | MIC (Staphylococcus aureus [22]): 4 µg/mL | MIC (Staphylococcus aureus [24]): 4 µg/mL | MIC (Pseudomonas aeruginosa [26]): 32 µg/mL | MIC (Staphylococcus aureus [28]): 4 µg/mL | MIC (Staphylococcus aureus [29]): 4 µg/mL | Activity [53]: Non-Toxic | MIC (Pseudomonas aeruginosa [32]): 32 µg/mL | MIC (Staphylococcus aureus [33]): 8 µg/mL | MIC (Enterococcus faecalis): 32 µg/mL | MIC (Staphylococcus aureus [36]): 2 µg/mL | CHI [38]: 33.3 | MIC (Staphylococcus aureus [39]): 4 µg/mL | MIC (Staphylococcus aureus [40]): 4 µg/mL | MIC (Staphylococcus aureus [41]): 4 µg/mL | MIC (Escherichia coli [42]): 4 µg/mL | HC50 at 3 h [43]: 70 µg/mL | MIC (Staphylococcus aureus [44]): 4 µg/mL | MIC (Staphylococcus aureus [45]): 4 µg/mL | MIC (Staphylococcus aureus [46]): 4 µg/mL | MIC (Staphylococcus aureus [47]): 2 µg/mL | MIC (Staphylococcus aureus [48]): 2 µg/mL | MIC (Enterococcus faecium): 128 µg/mL
